In PMC4583449, “Characterisation of (R)-2-(2-Fluorobiphenyl-4-yl)-N-(3-Methylpyridin-2-yl)Propanamide as a Dual Fatty Acid Amide Hydrolase: Cyclooxygenase Inhibitor” (PLoS ONE, 2015):

Legend:
RAW 264.7 cells [1] = assay: Lipid profile (prostaglandins, 2-AG, AEA and related lipids) of RAW 264.7 cell extracts, UPLC-MS/MS; assay type: cell-based, mouse; conditions: 30 min; for Effect on levels of AEA and related N-acylethanolamines in the cells: LPS + INF-γ-treated, ionomycin (5 μM) treated cells, flurbiprofen and (R)-Flu-AM1 10 μM
RAW 264.7 cells [2] = assay: [3H]AEA hydrolysis by intact RAW 264.7 cells; assay type: cell-based, mouse; conditions: LPS + INF-γ-treated cells; 100 nM [3H]AEA, 60 min; URB597 1 μM, flurbiprofen and (R)-Flu-AM1 10 μM
[3] = LPS + IFNγ 24 h, URB597 1 μM, flurbiprofen 10 μM, (R)-Flu-AM1 10 μM, median (range), n = 5–6
[4] = Treatment None (unstimulated), URB597 1 μM, flurbiprofen 10 μM, (R)-Flu-AM1 10 μM, median (range), n = 5–6

Structure (SMILES): NC(=O)c1cccc(-c2cccc(OC(=O)NC3CCCCC3)c2)c1 [URB597, cyclohexylcarbamic acid 3′-carbamoylbiphenyl-3-yl ester, reference compound]
- 2-AG level relative to vehicle None median (RAW 264.7 cells [1]; [3]): 0.90 (0.70–1.11)
- 9,10,13-TriHOME level relative to vehicle None median (RAW 264.7 cells [1]; [3]): 1.08 (0.68–1.89)
- 9,10-DiHOME level relative to vehicle None median (RAW 264.7 cells [1]; [3]): 0.76 (0.69–1.05)
- 9,12,13-TriHOME level relative to vehicle None median (RAW 264.7 cells [1]; [3]): 1.08 (0.66–1.79)
- 9-HODE level relative to vehicle None median (RAW 264.7 cells [1]; [3]): 1.11 (0.49–1.20)
- 11-HETE level relative to vehicle None median (RAW 264.7 cells [1]; [3]): 13.0 (4.82–25.7)
- 12(13)-EpOME level relative to vehicle None median (RAW 264.7 cells [1]; [3]): 1.24 (0.92–1.72)
- 12(S)-HEPE level relative to vehicle None median (RAW 264.7 cells [1]; [3]): 0.59 (0.28–1.36)
- 12,13-DiHOME level relative to vehicle None median (RAW 264.7 cells [1]; [3]): 0.93 (0.85–1.26)
- 12-HETE level relative to vehicle None median (RAW 264.7 cells [1]; [3]): 0.61 (0.41–0.96)
- 13-HODE level relative to vehicle None median (RAW 264.7 cells [1]; [3]): 1.16 (0.49–1.43)
- 13-oxo-ODE level relative to vehicle None median (RAW 264.7 cells [1]; [3]): 1.52 (0.34–2.87)
- 15-HETE level relative to vehicle None median (RAW 264.7 cells [1]; [3]): 4.58 (0.97–5.29)
- AEA level relative to vehicle None median (RAW 264.7 cells [1]; [3]): 1.39 (1.26–1.58)
- LEA level relative to vehicle None median (RAW 264.7 cells [1]; [3]): 1.06 (0.79–1.87)
- OEA level relative to vehicle None median (RAW 264.7 cells [1]; [3]): 0.97 (0.74–1.96)
- PEA level relative to vehicle None median (RAW 264.7 cells [1]; [3]): 0.97 (0.88–1.31)
- PGD2 level relative to vehicle None median (RAW 264.7 cells [1]; [3]): 35.1 (19.4–117)
- PGE2 level relative to vehicle None median (RAW 264.7 cells [1]; [3]): 10.6 (7.33–33.5)
- SEA level relative to vehicle None median (RAW 264.7 cells [1]; [3]): 0.79 (0.67–1.28)
- Effect on levels of AEA and related N-acylethanolamines in the cells (RAW 264.7 cells [1]; URB597 1 μM): modest effects
- 2-AG level relative to vehicle None median (RAW 264.7 cells [1]; [4]): 1.10 (0.61–1.47)
- 9,10,13-TriHOME level relative to vehicle None median (RAW 264.7 cells [1]; [4]): 1.13 (0.44–2.51)
- 9,10-DiHOME level relative to vehicle None median (RAW 264.7 cells [1]; [4]): 1.10 (0.65–1.32)
- 9,12,13-TriHOME level relative to vehicle None median (RAW 264.7 cells [1]; [4]): 1.23 (0.51–2.53)
- 9-HODE level relative to vehicle None median (RAW 264.7 cells [1]; [4]): 1.14 (0.72–2.07)
- 11-HETE level relative to vehicle None median (RAW 264.7 cells [1]; [4]): 1.12 (0–2.69)
- 12(13)-EpOME level relative to vehicle None median (RAW 264.7 cells [1]; [4]): 1.07 (0.66–1.66)
- 12(S)-HEPE level relative to vehicle None median (RAW 264.7 cells [1]; [4]): 0.59 (0–0.85)
- 12,13-DiHOME level relative to vehicle None median (RAW 264.7 cells [1]; [4]): 1.15 (1.04–1.39)
- 12-HETE level relative to vehicle None median (RAW 264.7 cells [1]; [4]): 0.94 (0.33–1.48)
- 13-HODE level relative to vehicle None median (RAW 264.7 cells [1]; [4]): 1.42 (0.79–1.75)
- 13-oxo-ODE level relative to vehicle None median (RAW 264.7 cells [1]; [4]): 1.40 (0.76–2.27)
- 15-HETE level relative to vehicle None median (RAW 264.7 cells [1]; [4]): 1.02 (0.25–2.16)
- AEA level relative to vehicle None median (RAW 264.7 cells [1]; [4]): 0.85 (0.45–1.18)
- LEA level relative to vehicle None median (RAW 264.7 cells [1]; [4]): 0.79 (0.68–1.15)
- PEA level relative to vehicle None median (RAW 264.7 cells [1]; [4]): 1.07 (0.87–1.28)
- PGD2 level relative to vehicle None median (RAW 264.7 cells [1]; [4]): 1.37 (0.79–2.48)
- PGE2 level relative to vehicle None median (RAW 264.7 cells [1]; [4]): 0.98 (0.49–1.81)
- SEA level relative to vehicle None median (RAW 264.7 cells [1]; [4]): 0.80 (0.65–1.27)
- Effect on hydrolysis of exogenous [3H]AEA by intact cells (RAW 264.7 cells [2]): completely blocked

Structure (SMILES): CC(C(=O)O)c1ccc(-c2ccccc2)c(F)c1 (stereo not drawn) [Flurbiprofen, flurbiprofen, reference compound]
- Effect on basal and LPS + INF-γ-stimulated PGD2 and PGE2 production (RAW 264.7 cells [1]; 10 μM): blocked
- Effect on levels of 2-AG in the cell extracts (RAW 264.7 cells [1]; 10 μM, unstimulated and LPS + INF-γ-treated): not affected
- Effect on levels of AEA and related N-acylethanolamines in the cells (RAW 264.7 cells [1]; URB597 1 μM): did not affect
- Effect on hydrolysis of exogenous [3H]AEA by intact cells (RAW 264.7 cells [2]): would not be expected, and this was found to be the case
